Patent publication EP0314302A2, “Herbicidal o-carbomethoxy-sulfonylureas” (E.I. DU PONT DE NEMOURS AND COMPANY, priority 1987, dated 1989)

How the values were obtained:
Common ragweed = experiment: Test 11 windowsill flats, postemergence; type: in vivo, Ambrosia artemisiifolia; details: Postemergence 32 g/ha, 0.25% X-77 surfactant, scale 0-100
Description: (§1) Budded citrus seedlings were planted in 30-liter plastic pots which were also seeded with sandbur, guineagrass, narrowleaf panicum, common ragweed, yellow nutsedge, purple nutsedge and bindweed. Compound I was applied preemergence and postemergence to the weeds. Treatments were sprayed to simulate the trunk-to-trunk herbicide application method used in some citrus groves. The compound was also applied postemergence to weeds grown in windowsill flats. The flats were filled with planting medium and seeded with morningglory (Ipomoea spp.). purple nutsedge (Cyperus rotundus), pigweed (Amaranthus spp.), bindweed (Convolvulus spp.), narrowleaf panicum (Panicum maximum), common ragweed (Ambrosia artemisiifolia), sandbur (Cenchrus echinatus), itchgrass (Rottboellia exaltata), johnsongrass (Sorghum halepense), guineagrass (Panicum maximum), smooth crabgrass (Digitaria ischaemum), broadleaf signalgrass (Brachiaria platyphylla), bermudagrass (Cynodon dactylon), goosegrass (Eleusine indica), large crabgrass (Digitaria sanguinalis) and yellow nutsedge (Cyperus esculentus).
(§2) The compound was formulated and sprayed with 0.25% X-77 surfactant in water. Plants were visually rated 21 and 29 days after treatment and compared with appropriate controls. Injury ratings were based on the scale of 0 to 100, where 0 indicates no effect, 20 indicates minimum effect and 100 indicates complete control. […]

Wild radish = experiment: Test 10 postemergence safety to crops and weed control; type: in vivo, Raphanus raphanistrum; details: 16 g/ha, scale 0-100
Description: The object of these tests was to evaluate the compound of this invention for postemergence safety to crops and weed control. Seedling and budded Macedine grapes were grown in 11.4-cm pots. Flax, green foxtail (Setaria viridis), "Morex" barley, wild oats (Avena fatua), "Era" wheat, annual ryegrass (Lolium multiflorum), wild radish (Raphanus raphanistrum), rape, sunflower, chickweed (Stellaria media) and wild buckwheat (Polygonum convolvulus) were seeded in windowsill pots.
The plants were sprayed postemergence with Compound I in a non-phytotoxic solvent. Plants were visually rated 15 and 27 days after treatment (DAT). Injury and weed control ratings were based on the scale of 0 to 100 where 0 = no effect, 20 minimal control and 100 = complete control.

Loblolly pine = experiment: Test 13 conifer seedlings, postemergence; type: in vivo; details: scale 0-100
From the text: Conifer species (Loblolly pine) seedlings were transplanted into 15-cm plastic pots filled with planting medium. Compound I was applied postemergence to the loblolly pine seedlings. The compound was formulated in a non-phytotoxic spray solvent. Plans were visually rated 240 days after treatment (DAT) and compared with appropriate controls. Injury ratings are based on the scale of 0 to 100, where 0 indicates no effect, 20 indicates minimal injury and 100 indicates complete kill.

Goosegrass = experiment: Test 11 windowsill flats, postemergence; type: in vivo, Eleusine indica; details: Postemergence 32 g/ha, 0.25% X-77 surfactant, scale 0-100
Description: as §1, §2

Citrus = experiment: Test 11 citrus pots, preemergence to the weeds; type: in vivo; details: Preemergence 32 g/ha; 0.25% X-77 surfactant; scale 0-100
Description: as §1, §2

Lalang = experiment: Test 4 plantation crop weeds, postemergence; type: in vivo, Imparata cylindrica; details: Table 8, scale 0-100
From the text: The object of this test was to evaluate the efficacy of the compound of this invention on weeds that infest some plantation crops at different growth stages of the weeds. Asystasia intrusa, Mikania cordata, goldenrod Solidago spp, Boston fern Nephrolepis exalata, and lalang Imparata cylindrica were planted in 15-cm plastic pots. Plants were sprayed postemergence with Compound I in a non-phytotoxic solvent. The Asystasia plants ranged in growth from 4 leaves to 9 leaves and very branched, Mikania had 6 leaves to vining, the goldenrod was branching and the Boston fern was growing vigorously. The degree of weed control was visually rated 20 to 24 days after treatment (DAT). Control ratings are based on the scale of 0 to 100 where 0 = no effect, 20 = minimal control and 100 = complete control. Variations in the results of the tests could be due to the fact that the tests were run at different times of the year or due to the stage of growth of the weeds.

Sugarcane = experiment: Test 9 postemergence; type: in vivo; details: scale 0-100
Yellow nutsedge = experiment: Test 11 windowsill flats, postemergence; type: in vivo, Cyperus esculentus; details: Postemergence 32 g/ha, 0.25% X-77 surfactant, scale 0-100
Description: as §1, §2

Trumpetcreeper = experiment: Test 12 over-the-top application, postemergence; type: in vivo, Campsis radicans; details: 26 days after treatment, scale 0-100
From the text: The object of this test was to evaluate the safety of sour lemon to the over-the-top application of Compound I and control of lantana (Lantana camara) and trumpetcreeper (Campsis radicans). Plants were sprayed postemergence with Compound I formulated in a non-phytotoxic solvent. Treated plants were visually rated 26 days after treatment and compared with appropriate controls. Injury ratings were based on the scale of 0 to 100, where 0 indicates no effect, 20 indicates minimal effect and 100 indicates complete control.

Guinea Grass = experiment: Test 5 sugarcane injury and weed control, postemergence; type: in vivo, P. maximum; details: scale 0-100
Description: Sugarcane (Saccharum spp.) cuttings which had been pre-sprouted were planted in 15-cm plastic pots. Narrowleaf panicum (Panicum maximum), large crabgrass (Digitaria sanguinalis), guineagrass (P. maximum) and itchgrass (Rottboellia exaltata) were seeded in individual 15-cm plastic pots.
The pots were treated postemergence when the plants had 3 to 4 leaves with 2 to 3 tillers with Compound I formulated in a non-phytotoxic carrier made up of acetone-humectant-water-surfactant (22:1:1:0.05 v/v). The degree of crop injury and weed control was visually rated 27 days after treatment (DAT). Plant injury ratings are based on the scale of 0 to 100 where 0 = no effect, 20 = minimal injury and 100 = complete control.

Narrowleaf panicum = experiment: Test 11 windowsill flats, postemergence; type: in vivo, Panicum maximum; details: Postemergence 32 g/ha, 0.25% X-77 surfactant, scale 0-100
Description: as §1, §2

Guineagrass = experiment: Test 11 windowsill flats, postemergence; type: in vivo, Panicum maximum; details: Postemergence 32 g/ha, 0.25% X-77 surfactant, scale 0-100
Description: as §1, §2

Crabgrass = experiment: Test 3 postemergence weed control; type: in vivo, Digitaria spp; details: scale 0-100
Description: Seeds of crabgrass (Digitaria spp), guinea grass (Panicum maximum) and narrowleaf panicum (P. maximum) were planted in 15-cm plastic pots. The weeds were treated postemergence with compound I, formulated in a non-phytotoxic solvent, when the plants had 3 or more leaves and had tillered. The degree of weed control was visually rated 17 days after compound application (DAT). Control ratings were based on a scale of 0 to 100 where 0 = no effect, 20 = minimal control and 100 = complete control.

Large Crabgrass = experiment: Test 11 windowsill flats, postemergence; type: in vivo, Digitaria sanguinalis; details: Postemergence 32 g/ha, 0.25% X-77 surfactant, scale 0-100
Description: as §1, §2

COC(=O)c1cccnc1S(=O)(=O)NC(=O)Nc1nc(OC)cc(OC)n1 [Compound I, 2-[[(4,6-dimethoxypyrimidin-2-yl)aminocarbonyl]aminosulfonyl]-3-pyridinecarboxylic acid, methyl ester]
Injury ratings (Common ragweed): 0 | Plant Injury Rating 15 DAT (Wild radish): 100 | Plant Injury Rating 240 DAT (Loblolly pine; 8 g/ha): 0 | Plant Injury Rating 240 DAT (Loblolly pine; 16 g/ha): 0 | Plant Injury Rating 240 DAT (Loblolly pine; 32 g/ha): 0 | Plant Injury Rating 240 DAT (Loblolly pine; 64 g/ha): 0 | Plant Injury Rating 240 DAT (Loblolly pine; 125 g/ha): 0 | Injury ratings (Goosegrass): 90 | Injury ratings (Citrus): 0 | Control Rating 22 DAT (Lalang; 16 g/ha): 20 | Control Rating 22 DAT (Lalang; 32 g/ha): 20 | Control Rating 22 DAT (Lalang; 64 g/ha): 40 | Plant Injury Rating 22 DAT (Sugarcane; 8 g/ha): 10 | Plant Injury Rating 22 DAT (Sugarcane; 16 g/ha): 20 | Plant Injury Rating 22 DAT (Sugarcane; 32 g/ha): 30 | Injury ratings (Yellow nutsedge): 80 | Injury ratings (Trumpetcreeper; 8 g/ha): 0 | Injury ratings (Trumpetcreeper; 16 g/ha): 20 | Injury ratings (Trumpetcreeper; 32 g/ha): 40 | Plant Injury Rating 27 DAT (Guinea Grass; 8 g/ha): 30 | Plant Injury Rating 27 DAT (Guinea Grass; 16 g/ha): 70 | Plant Injury Rating 27 DAT (Guinea Grass; 32 g/ha): 80 | Plant Injury Rating 27 DAT (Guinea Grass; 64 g/ha): 100 | Injury ratings (Narrowleaf panicum): 90 | Injury ratings (Guineagrass): 100 | Control Rating 17 DAT (Crabgrass; 8 g/ha): 50 | Control Rating 17 DAT (Crabgrass; 16 g/ha): 70 | Control Rating 17 DAT (Crabgrass; 32 g/ha): 100 | Injury ratings (Large Crabgrass): 80
